Columns and labels:
[1] = test system: MET; experiment: MET biochemical kinase assay; parameters: species or system human; concentration or dose not given beside the values
Method in brief: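 MET from cell lysates captured on ELISA plates via rabbit anti-MET cytoplasmic-domain antibody; compounds added and kinase reaction run in ATP and divalent-metal buffer. Receptor phosphotyrosine detected with HRP-conjugated anti-phosphotyrosine antibody and TMB colorimetry.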

[2] = target: PDGF-R (Homo sapiens, UniProt P09619); experiment: PDGF-R ELISA; assay type: cell-based
Excerpt: A PDGF-R ELISA is described in International Patent Publication No. WO 96/40116, published December 19, 1996 by Tang et al.

[3] = target: T1, FLK-1 receptor (Mus musculus, UniProt P35918); experiment: FLK-1 ELISA (kinase activity of the FLK-1 receptor in FLK-1/NIH3T3 cells, VEGF stimulated); assay type: cell-based
T1 construct: expressed in transfected cells; host or cells: NIH3T3 C7#3
Method in brief: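 An ELISA using affinity-purified rabbit anti-FLK-1 antiserum on anti-rabbit IgG-coated plates measured VEGF-stimulated FLK-1 kinase activity. NIH3T3 C7#3 cells carrying FLK-1 were serum-starved (0.1% FBS) overnight, then exposed to compound (final 1:200 dilution, 0.5% DMSO) for two hours at 37 °C.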

Chain of PDGF-R (P09619 33-1106, species assumed): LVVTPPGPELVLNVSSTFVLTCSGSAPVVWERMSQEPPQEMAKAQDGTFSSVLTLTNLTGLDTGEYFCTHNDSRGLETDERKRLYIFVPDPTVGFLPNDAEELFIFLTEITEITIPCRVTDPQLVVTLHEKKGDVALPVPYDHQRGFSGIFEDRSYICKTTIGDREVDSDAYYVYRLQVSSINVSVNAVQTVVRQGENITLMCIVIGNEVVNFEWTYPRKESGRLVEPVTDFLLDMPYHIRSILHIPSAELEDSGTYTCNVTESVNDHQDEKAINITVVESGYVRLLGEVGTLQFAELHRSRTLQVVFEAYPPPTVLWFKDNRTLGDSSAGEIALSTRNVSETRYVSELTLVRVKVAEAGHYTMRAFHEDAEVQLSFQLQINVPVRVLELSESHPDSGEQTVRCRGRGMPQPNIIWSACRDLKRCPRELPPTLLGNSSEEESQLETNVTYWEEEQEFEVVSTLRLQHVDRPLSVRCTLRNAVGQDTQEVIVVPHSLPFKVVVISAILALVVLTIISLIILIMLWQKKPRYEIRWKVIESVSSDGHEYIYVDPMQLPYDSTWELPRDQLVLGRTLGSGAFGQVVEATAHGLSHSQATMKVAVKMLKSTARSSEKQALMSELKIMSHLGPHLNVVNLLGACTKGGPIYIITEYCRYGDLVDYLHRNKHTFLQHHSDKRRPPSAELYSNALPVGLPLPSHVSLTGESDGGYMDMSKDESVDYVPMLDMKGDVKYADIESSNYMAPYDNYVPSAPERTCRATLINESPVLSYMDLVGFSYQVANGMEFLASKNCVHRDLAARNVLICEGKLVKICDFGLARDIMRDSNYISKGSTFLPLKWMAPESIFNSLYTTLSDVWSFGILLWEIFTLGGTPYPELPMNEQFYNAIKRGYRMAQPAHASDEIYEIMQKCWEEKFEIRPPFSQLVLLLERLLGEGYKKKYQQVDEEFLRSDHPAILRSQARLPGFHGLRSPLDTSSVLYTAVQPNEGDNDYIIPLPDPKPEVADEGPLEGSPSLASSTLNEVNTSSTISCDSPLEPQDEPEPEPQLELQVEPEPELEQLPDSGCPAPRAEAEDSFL
T1 sequence (P35918 20-1345): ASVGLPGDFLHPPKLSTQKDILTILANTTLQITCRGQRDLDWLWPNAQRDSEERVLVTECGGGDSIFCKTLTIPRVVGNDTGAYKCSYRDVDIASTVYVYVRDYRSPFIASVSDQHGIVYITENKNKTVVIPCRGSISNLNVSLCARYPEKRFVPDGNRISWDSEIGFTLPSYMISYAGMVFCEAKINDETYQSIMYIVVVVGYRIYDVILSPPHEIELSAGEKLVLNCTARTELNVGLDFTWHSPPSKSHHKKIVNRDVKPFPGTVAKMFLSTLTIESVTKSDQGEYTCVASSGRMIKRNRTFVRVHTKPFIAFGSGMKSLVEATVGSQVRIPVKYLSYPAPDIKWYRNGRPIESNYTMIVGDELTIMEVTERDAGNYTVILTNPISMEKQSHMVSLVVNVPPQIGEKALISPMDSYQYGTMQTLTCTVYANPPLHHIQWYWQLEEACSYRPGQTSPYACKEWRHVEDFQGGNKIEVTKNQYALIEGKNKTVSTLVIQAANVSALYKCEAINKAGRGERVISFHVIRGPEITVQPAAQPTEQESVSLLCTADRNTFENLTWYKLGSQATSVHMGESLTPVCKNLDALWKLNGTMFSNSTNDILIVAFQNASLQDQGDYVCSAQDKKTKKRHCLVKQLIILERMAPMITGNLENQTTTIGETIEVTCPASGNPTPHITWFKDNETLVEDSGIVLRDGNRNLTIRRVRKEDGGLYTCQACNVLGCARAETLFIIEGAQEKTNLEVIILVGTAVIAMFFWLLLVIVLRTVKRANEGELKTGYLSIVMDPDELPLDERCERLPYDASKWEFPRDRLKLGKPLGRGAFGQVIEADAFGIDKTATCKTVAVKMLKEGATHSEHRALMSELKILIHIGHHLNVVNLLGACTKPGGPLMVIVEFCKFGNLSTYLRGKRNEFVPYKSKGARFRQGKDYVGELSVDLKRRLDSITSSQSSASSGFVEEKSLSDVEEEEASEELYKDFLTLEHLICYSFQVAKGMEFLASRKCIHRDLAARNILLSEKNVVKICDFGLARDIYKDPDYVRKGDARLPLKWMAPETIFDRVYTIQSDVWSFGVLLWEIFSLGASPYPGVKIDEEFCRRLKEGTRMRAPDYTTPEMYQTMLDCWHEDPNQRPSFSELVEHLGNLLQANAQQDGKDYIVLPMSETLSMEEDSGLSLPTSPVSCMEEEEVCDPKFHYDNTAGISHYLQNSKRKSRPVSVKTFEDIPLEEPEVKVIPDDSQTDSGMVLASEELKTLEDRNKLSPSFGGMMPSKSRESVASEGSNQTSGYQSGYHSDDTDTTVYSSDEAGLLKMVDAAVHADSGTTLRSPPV

Compound	Met Kinase % Inhibition [1] [%]	PDGF Kinase %Inhibition [2] [%]	Fik Kinase %Inhibition [3] [%]
Cc1c(Br)ccc2c1C(=Cc1ccc3c(c1)Cc1ccccc1-3)C(=O)N2 [10728/C06]	22.9	2.7	8.4
Cc1c(Br)ccc2c1C(=Cc1cccc(C(F)(F)F)c1F)C(=O)N2 [10728/C07]	46.3	8.9	-7.2
Cc1c(Br)ccc2c1C(=Cc1cc(C(F)(F)F)ccc1F)C(=O)N2 [10728/C08]	25.5	9.4	-2.2
Cc1c(Br)ccc2c1C(=Cc1c(F)cccc1C(F)(F)F)C(=O)N2 [10728/C09]	31.6	8.1	14.5
Cc1c(Br)ccc2c1C(=Cc1ccccc1OCC(=O)O)C(=O)N2 [10728/C10]	28.7	11.2	6.1
COc1cc(C=C2C(=O)Nc3ccc(Br)c(C)c32)cc2c1OCO2 [10728/C11]	45.2	8.5	-10.1
CNS(=O)(=O)c1ccc2c(c1)C(=Cc1cc(OC)ccc1OC)C(=O)N2 [10728/D02]	21.4	9.8	-0.3
CNS(=O)(=O)c1ccc2c(c1)C(=Cc1c(OC)cccc1OC)C(=O)N2 [10728/D03]	13.5	32.0	10.2
CNS(=O)(=O)c1ccc2c(c1)C(=Cc1cc(OC)cc(OC)c1)C(=O)N2 [10728/D04]	23.1	26.7	6.8
CNS(=O)(=O)c1ccc2c(c1)C(=Cc1ccc(N(C)C)cc1OC)C(=O)N2 [10728/D05]	29.5	7.2	4.9
CNS(=O)(=O)c1ccc2c(c1)C(=Cc1ccc3c(c1)Cc1ccccc1-3)C(=O)N2 [10728/D06]	23.2	5.8	10.4
